{"source": "patent US7642280B2", "about": "“Inhibitors of acyl glucosaminyl inositol amidase and methods of use” (The Regents of the University of California, priority 2001, dated 2010)", "key": {"[1]": {"biological_target": "Mycobacterium smegmatis mycothiol-S-conjugate amidase (MCA) (Mycolicibacterium smegmatis, UniProt A0R2W9)", "sequence (A0R2W9 whole entry)": "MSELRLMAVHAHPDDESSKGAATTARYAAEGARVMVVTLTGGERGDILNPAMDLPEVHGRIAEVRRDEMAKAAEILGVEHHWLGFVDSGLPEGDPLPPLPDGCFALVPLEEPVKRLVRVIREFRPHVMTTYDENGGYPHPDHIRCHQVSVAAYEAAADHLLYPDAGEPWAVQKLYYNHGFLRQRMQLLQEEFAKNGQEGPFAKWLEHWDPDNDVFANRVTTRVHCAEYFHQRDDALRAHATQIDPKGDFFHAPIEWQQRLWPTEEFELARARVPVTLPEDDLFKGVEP", "test": "Fluorescence-based HPLC IC50 assay, wild type M. smegmatis MCA with natural MSmB", "assay_type": "biochemical"}, "M. tuberculosis MCA": {"biological_target": "M. tuberculosis MCA (Mycobacterium tuberculosis, UniProt P9WJN1)", "sequence (P9WJN1 whole entry)": "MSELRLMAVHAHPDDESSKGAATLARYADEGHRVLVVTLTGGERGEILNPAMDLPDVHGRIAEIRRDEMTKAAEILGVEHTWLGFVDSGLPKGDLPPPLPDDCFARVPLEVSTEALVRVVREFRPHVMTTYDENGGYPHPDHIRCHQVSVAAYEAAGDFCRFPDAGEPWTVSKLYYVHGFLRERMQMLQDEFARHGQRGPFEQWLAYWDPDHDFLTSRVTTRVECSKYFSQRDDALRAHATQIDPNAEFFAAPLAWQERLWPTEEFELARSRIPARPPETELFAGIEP", "test": "biochemical"}, "[2]": {"biological_target": "mycothiol S-conjugate amidase (MCA) (Mycolicibacterium smegmatis, UniProt A0R2W9)", "sequence (A0R2W9 whole entry)": "as the sequence (A0R2W9 whole entry) above", "test": "Fluorescence-detected HPLC assay of MCA cleavage of MSmB (50 μM MSmB as substrate), Examples 1 and 3", "assay_type": "biochemical"}, "[3]": {"conditions": "wild type M. smegmatis MCA approx. 20 nM, 30 μM natural MSmB, 20 min, 31° C., read-out: IC50 M. smeg"}, "[4]": {"conditions": "recombinant M. tuberculosis MCA approx. 20 nM, 30 μM synthetic MSmB, 20 min, 31° C., read-out: IC50 M. tb"}, "[5]": {"conditions": "50 μM MSmB as substrate, read-out: concentration that inhibited mycothiol S-conjugate amidase by 50%"}}, "note": "pIC50: −log10 of the molar value. Like-named read-outs stand apart in the source and are kept apart here.", "data": [{"compound": "Suvanine [Compound 10]", "values": [{"measurement": "pIC50", "setting": "[1]; [3]", "value": 4.22}]}, {"compound": "psammaplysin A [Compound 3]", "values": [{"measurement": "pIC50", "setting": "[1]; [3]", "value": 4.52}, {"measurement": "pIC50", "setting": "M. tuberculosis MCA; [4]", "value": 4.52}]}, {"compound": "Oceanapiside [Compound 7]", "values": [{"measurement": "pIC50", "setting": "[1]; [3]", "value": 6.30}, {"measurement": "pIC50", "setting": "[2]; 50 μM MSmB as substrate, read-out: IC50 amidase inhibition (Example 3, FIG. 6)", "value": 5.30}, {"measurement": "pIC50", "setting": "M. tuberculosis MCA; [4]", "value": 5.00}]}, {"compound": "COC1=C(Br)[C@@H](O)[C@]2(C=C1Br)CC(C(=O)NCCc1cnc(N)[nH]1)=NO2", "note": "[Compound 2, Pseudoceratine]", "values": [{"measurement": "pIC50", "setting": "[1]; [3]", "value": 4.00}, {"measurement": "pIC50", "setting": "[2]; [5]", "value": 4.00}, {"measurement": "pIC50", "setting": "M. tuberculosis MCA; [4]", "value": 4.00}]}, {"compound": "CN1C(=O)[C@]23CC4=CC=C[C@H](O)[C@H]4N2C(=O)[C@@]1(CO)SS3", "note": "[Compound 12, Gliotoxin]", "values": [{"measurement": "pIC50", "setting": "[1]; [3]", "value": 4.52}, {"measurement": "pIC50", "setting": "M. tuberculosis MCA", "value": 4.52}]}, {"compound": "oceanapiside aglycon [Compound 8]", "values": [{"measurement": "pIC50", "setting": "M. tuberculosis MCA; [4]", "value": 4.70}]}, {"compound": "COC1=C(Br)C[C@]2(OC=C1Br)ON=C(C(=O)NCCCOc1c(Br)cc(C(O)CN)cc1Br)[C@@H]2O", "note": "(stereo partly shown) [Compound 4, psammaplysin B]", "values": [{"measurement": "pIC50", "setting": "[1]; [3]", "value": 4.70}, {"measurement": "pIC50", "setting": "[2]; [5]", "value": 5.52}, {"measurement": "pIC50", "setting": "M. tuberculosis MCA; [4]", "value": 4.52}]}, {"compound": "halisulfate 1 [Compound 11]", "values": [{"measurement": "pIC50", "setting": "[1]; [3]", "value": 4.40}]}, {"compound": "COC1=C(Br)[C@@H](O)[C@]2(C=C1Br)CC(C(=O)NCCc1[nH]c(N)nc1-c1cc(O)c3ncc(O)c(O)c3c1O)=NO2", "note": "[Compound 1]", "values": [{"measurement": "pIC50", "setting": "[1]", "value": 5.70}, {"measurement": "pIC50", "setting": "[2]", "value": 5.70}, {"measurement": "pIC50", "setting": "M. tuberculosis MCA; [4]", "value": 5.52}]}, {"compound": "COc1cc(O)c2c(c1)C(=O)c1cc(C)cc(O)c1C2=O", "note": "[Compound 14, Physcion]", "values": [{"measurement": "pIC50", "setting": "[1]; [3]", "value": 4.30}]}, {"compound": "CS[C@]1(CO)C(=O)N2[C@H]3C(=CC=C[C@@H]3O)C[C@@]2(SC)C(=O)N1C", "note": "[Compound 13, S,S-dimethyl gliotoxin]", "values": [{"measurement": "pIC50", "setting": "[1]; [3]", "value": 3.55}]}, {"compound": "O=c1c(O)c[nH]c2c(O)ccc(O)c12", "note": "[uranidine, reference compound]", "values": [{"measurement": "inhibitory activity against MCA (in words)", "setting": "[2]; 50 μM MSmB as substrate, absence of cleavage product AcCys-bimane", "value": "ineffective"}]}]}
